# Assay results taken from EP2258370A1, “Treatment of malignant diseases” (Medizinische Universität Wien, priority 2009, dated 2010).
# Columns and labels:
# [1] = test system: CRL 2505 (prostate carcinoma); experiment: Cell proliferation assay (WST-1); format: cell-based; details: 25 and 50 µM, 24 h, 48 h and 72 h, WST-1, Figs. 2a-f
# Description: (§1) Rac-1 inhibitor compounds were tested in cell proliferation assays performed with following cancer cell lines: MCF7 (mammary carcinoma), SW620 (colon carcinoma), CRL 2505 (prostate carcinoma). The level of proliferation was measured at 24 hours (h), 48 h and 72 h after in vitro induction of compounds. Two different concentrations of compounds were tested for each cell line (25 and 50 µM, see Figs. 2a-f; the asteriks indicates significant change versus control group (no compound induction) at all incubation points (p<0.02)).
# (§2) The proliferation assay was performed with Cell Proliferation Reagent WST-1 (Roche Cat. No. 1644 807). The cells were cultured 2 x 10^4 cells/well in microplates (96 wells, flat bottom). The Cell Proliferation Reagent WST-1 (10 µl/well) was added to each experimental group (Figs. 2a-f). After 4 hours of incubation (37°C) the absorbance was measured by Microplate (ELISA) reader at 450 nm optical density (OD). The reference wavelength was 620 nm.
# (§3) All experimental compounds (compounds 1, 2, 3-10, 18, 53) were solved in 1% DMSO solution. Therefore, additional experimental group (1% DMSO) was used to examine proliferation activity of used cell lines in presence of 1% DMSO.
# (§4) All measurements were corrected to the blank absorbance (medium with 10 µl Cell Proliferation Reagent WST-1, no cells).
# MCF7 (mammary carcinoma) = experiment: Cell proliferation assay (WST-1); format: cell-based; details: 25 and 50 µM, 24 h, 48 h and 72 h, WST-1, Figs. 2a-f
# Description: as §1, §2, §3, §4
# SW620 (colon carcinoma) = experiment: Cell proliferation assay (WST-1); format: cell-based; details: 25 and 50 µM, 24 h, 48 h and 72 h, WST-1, Figs. 2a-f
# Description: as §1, §2, §3, §4
# MCF-7 cells = experiment: MCF-7 human breast cancer xenograft in athymic nude mice; format: in vivo; details: intraperitoneal osmotic minipump from day 24, day 38, control 210 ± 31 mg
# Description: On the indicated days, tumour sizes were determined with a caliper and tumour volumes calculated according to the following formula: tumour volume = [(length x width^2) x […]].
# All mice were sacrificed on day 38 and tumour weights were then determined.
# SW620 cells = experiment: SW620 human colon cancer xenograft in athymic nude mice; details: 100µg/day for 2 weeks, intraperitoneal osmotic minipump from day 8, day 22; for mean tumour weight: control 793; for Mean tumour weight (±SD): control 793 ± 328 mg
# Description: 8 x 10^6 SW620 cells/100µl PBS were injected subcutaneously into the left flank. […] Control mice received osmotic pumps filled with Ringer's solution. All mice were sacrificed on day 22 and tumour weights were then determined.
# PC-3 = details: Rac-hyperactive prostate cancer cells; cited from earlier work
Compound,inhibiting proliferation of the tumour cells [1],inhibiting proliferation of the tumour cells (MCF7 (mammary carcinoma)),inhibiting proliferation of the tumour cells (SW620 (colon carcinoma)),mean tumour weight (MCF-7 cells; 25µg per day) [mg],mean tumour weight (MCF-7 cells; 50µg per day) [mg],mean tumour weight (MCF-7 cells; 100µg per day) [mg],Mean tumour weight (% of control (co)) (SW620 cells),mean tumour weight (SW620 cells) [mg],Mean tumour weight (±SD) (SW620 cells) [mg],"proliferation, anchorage independent growth, and invasion (PC-3)"
"CCN(CC)CCCC(C)Nc1nc(C)cc(NCCc2c[nH]c3ccc(O)cc23)n1 (racemic) [Compound 2, 3-{2-[2-(4-Diethylamino-1-methyl-butylamino)-6-methyl-pyrimidin-4-ylamino]-ethyl}-1H-indol-5-ol]",effective in inhibiting proliferation,effective in inhibiting proliferation,effective in inhibiting proliferation,185 ± 54,152 ± 70,118 ± 60,77 % of control (co),612,612,–
"CCN(CC)CCCC(C)Nc1nc(C)cc(NCCc2c[nH]c3ccccc23)n1 (stereo not shown) [Compound 1, N2-(4-Diethylamino-1-methyl-butyl)-N4-[2-(1H-indol-3-yl)-ethyl]-6-methyl-pyrimidine-2,4-diamine]",effective in inhibiting proliferation,effective in inhibiting proliferation,effective in inhibiting proliferation,–,–,–,74 % of control (co),583,583 ± 151,–
"CCN(CC)CCCC(C)Nc1nc(C)cc(Nc2ccc3nc(C)cc(N)c3c2)n1 (racemic) [NSC23766, N6-(2-((4-(diethylamino)-1-methylbutyl)amino)-6-methyl-4-pyrimidinyl)-2-methyl-4,6-quinolinediamine, reference compound]",–,–,–,–,–,–,107 % of control (co),846,846 ± 256,"able to inhibit proliferation, anchorage independent growth, and invasion"
